Assay results from publication PMC7324608 (Scientific Reports, 2020).
Changes are numbered by the printed parent chain.

Assays:
[1] = target: T1, HpHtrA S164A (Helicobacter pylori, UniProt G2J5T2, S164A); experiment: biochemical
T1 sequence (G2J5T2 18-475 S164A): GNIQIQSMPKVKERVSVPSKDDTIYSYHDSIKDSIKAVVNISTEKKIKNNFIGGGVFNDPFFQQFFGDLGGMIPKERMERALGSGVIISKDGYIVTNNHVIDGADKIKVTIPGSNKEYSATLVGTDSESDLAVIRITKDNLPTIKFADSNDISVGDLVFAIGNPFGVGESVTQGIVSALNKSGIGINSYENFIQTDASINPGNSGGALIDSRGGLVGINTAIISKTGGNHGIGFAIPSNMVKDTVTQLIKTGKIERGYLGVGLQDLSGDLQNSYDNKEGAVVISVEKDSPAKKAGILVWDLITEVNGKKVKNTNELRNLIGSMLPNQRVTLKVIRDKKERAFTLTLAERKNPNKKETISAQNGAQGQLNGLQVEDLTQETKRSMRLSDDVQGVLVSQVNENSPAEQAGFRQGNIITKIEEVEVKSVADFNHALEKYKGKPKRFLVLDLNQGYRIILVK
Procedure: (§1) Synthesis of 2-Abz-AQRVAFY(3-NO2)-NH2. The peptide was assembled manually on a 20 µmol scale.
(§2) The side-chain protecting groups were Pbf for Arg, and Trt for Gln. Fmoc deprotection was carried out with 25% piperidine in DMF/NMP (80:20, v/v) for 3 min, and 12.5% piperidine in DMF/NMP (80:20, v/v) for 12 min. The double couplings (2x45 min) were accomplished with the mixture Fmoc-AA-OH/HOBt/HBTU/DIPEA (5:5:4.8:10 equiv.). 2 -Boc-Abz-OH was coupled with the same protocol.
(§3) Afterwards, the peptidyl-resin was treated with 25% piperidine in DMF/NMP (80:20, v/v) (2x12 min) to deacylate the 3-nitro-tyrosine side chain. The peptide was simultaneously cleaved from the resin and deprotected by using the mixture TFA/H2O/TIA/EDT/TIS (90:3:1:3:3; Vtot = 1 ml) for about 3 h, precipitated from ice-cold diethyl ether, recovered by centrifugation at 4 °C for 6 min, washed four times with ice-cold diethyl ether, and dried in vacuo. The solid was dissolved in water and lyophilized.
(§4) Microscale thermophoresis .
(§5) D168A, MicroScale Thermophoresis (MST) analysis was performed using the Monolith NT.115 (NanoTemper Technologies). HpHtrA proteases were labeled with red fluorescent dye NT -650-NHS (amine reactive) according to the manufacturer’s protocol. Remaining free dye was removed by buffer exchange column chromatography and proteins were eluted in 50 mM Tris pH 7.4, 150 mM NaCl, 0.04% Tween. 5 nM of labelled HpHtrA was incubated for 15 minutes at RT with decreasing […]
(§6) Measurement was performed with premium treated capillaries (NanoTemper Technologies) and the Monolith NT.115 Microscale Thermophoresis device. Data analysis was performed with MO.Affinity Analysis v2.3 (NanoTemper Technologies) and GraphPad Prism Software (Version 8.0.2). Three independent experiments were […]

[2] = target: T2, HpHtrA wt (Helicobacter pylori, UniProt G2J5T2); experiment: biochemical
T2 sequence (G2J5T2 18-475): T1 sequence (G2J5T2 18-475 S164A) with A147S
Procedure: as §1, §2, §3, §4, §5, §6

[3] = target: T3, HpHtrA D168A (Helicobacter pylori, UniProt G2J5T2, D168A); settings: MST
T3 sequence (G2J5T2 18-475 D168A): T1 sequence (G2J5T2 18-475 S164A) with A147S, D151A
Procedure: as §1, §2, §3, §4, §5, §6

[4] = test system: HtrA homolog A (HhoA); settings: cited from earlier work

Structure (SMILES): [Zn+2] [Zn^++, ZnCl2]
- Kd [1]: 55 ± 34 µM
- Response amplitude ([1]; MST, 5 nM labelled HpHtrA S164A): 3.6
- S/N (signal to noise ratio) ([1]; MST, HpHtrA S164A): 6.0
- Kd [2]: 23 ± 12 µM
- Response amplitude ([2]; MST, 5 nM labelled HpHtrA wt, ZnCl2 1 mM - 30.5 nM): 4.3
- S/N (signal to noise ratio) ([2]; MST, HpHtrA wt): 6.3
- Response amplitude [3]: 2.7
- effect on HhoA in a casein cleavage assay [4]: inactivates
